From the CheMixHub viscosity set

Assay: xn = mol fraction of the nth substance listed

CCCC(C)O (centres undefined) + COC(C)(C)C
viscosity [mPa·s], 100 kPa
Details | x2 = 0.0811 | x2 = 0.1599 | x2 = 0.24 | x2 = 0.3501 | x2 = 0.44 | x2 = 0.56 | x2 = 0.65 | x2 = 0.74 | x2 = 0.8499 | x2 = 0.94
293.15 K | 2.815 | 1.943 | 1.344 | 0.97 | 0.774 | 0.621 | 0.546 | 0.496 | 0.436 | 0.39
298.15 K | 2.359 | 1.633 | 1.134 | 0.823 | 0.666 | 0.546 | 0.488 | 0.441 | 0.39 | 0.355
303.15 K | 1.994 | 1.378 | 0.98 | 0.705 | 0.574 | 0.474 | 0.424 | 0.39 | 0.35 | 0.321
308.15 K | 1.682 | 1.181 | 0.868 | 0.617 | 0.493 | 0.407 | 0.37 | 0.341 | 0.313 | 0.292
313.15 K | 1.419 | 1.001 | 0.728 | 0.514 | 0.407 | 0.337 | 0.313 | 0.296 | 0.275 | 0.263
318.15 K | 1.208 | 0.849 | 0.613 | 0.412 | 0.326 | 0.275 | 0.255 | 0.243 | 0.234 | 0.231
323.15 K | 1.032 | 0.744 | 0.524 | 0.345 | 0.268 | 0.226 | 0.211 | 0.2 | 0.197 | 0.2

COCCO + NCCO
viscosity [mPa·s], 101.3 kPa
Details | x2 = 0.122 | x2 = 0.348 | x2 = 0.916
298.15 K | 2.065 | 3.765 | –
308.15 K | – | – | 10.55

CCCCNCCCC + CCCCO
Details | viscosity [mPa·s]
298.15 K, 101.33 kPa, x1 = 0.0635 | 2.402
298.15 K, 101.33 kPa, x1 = 0.1073 | 2.317
298.15 K, 101.33 kPa, x1 = 0.1494 | 2.223
298.15 K, 101.33 kPa, x1 = 0.2108 | 2.071
298.15 K, 101.33 kPa, x1 = 0.2648 | 1.932
298.15 K, 101.33 kPa, x1 = 0.3259 | 1.78
298.15 K, 101.33 kPa, x1 = 0.3973 | 1.606
298.15 K, 101.33 kPa, x1 = 0.4697 | 1.447
298.15 K, 101.33 kPa, x1 = 0.5484 | 1.303
298.15 K, 101.33 kPa, x1 = 0.6286 | 1.172
298.15 K, 101.33 kPa, x1 = 0.7575 | 1.015
298.15 K, 101.33 kPa, x1 = 0.8182 | 0.962
298.15 K, 101.33 kPa, x1 = 0.8572 | 0.927
298.15 K, 101.33 kPa, x1 = 0.8972 | 0.888
298.15 K, 101.33 kPa, x1 = 0.923 | 0.883
303.15 K, 101 kPa, x1 = 0.01155 | 2.23
303.15 K, 101 kPa, x1 = 0.01803 | 2.213
303.15 K, 101 kPa, x1 = 0.02448 | 2.198
303.15 K, 101 kPa, x1 = 0.03423 | 2.177
303.15 K, 101 kPa, x1 = 0.04155 | 2.163
303.15 K, 101 kPa, x1 = 0.04858 | 2.15
303.15 K, 101 kPa, x1 = 0.05659 | 2.134
303.15 K, 101 kPa, x1 = 0.06332 | 2.12
303.15 K, 101 kPa, x1 = 0.1014 | 2.031
303.15 K, 101.33 kPa, x1 = 0.0951 | 2.122
303.15 K, 101.33 kPa, x1 = 0.1888 | 1.923
303.15 K, 101.33 kPa, x1 = 0.2886 | 1.712
303.15 K, 101.33 kPa, x1 = 0.3967 | 1.507
303.15 K, 101.33 kPa, x1 = 0.4924 | 1.34
303.15 K, 101.33 kPa, x1 = 0.5903 | 1.201
303.15 K, 101.33 kPa, x1 = 0.6884 | 1.078
303.15 K, 101.33 kPa, x1 = 0.7951 | 0.96
303.15 K, 101.33 kPa, x1 = 0.8941 | 0.8638
308.15 K, 101.33 kPa, x1 = 0.0635 | 1.828
308.15 K, 101.33 kPa, x1 = 0.1073 | 1.767
308.15 K, 101.33 kPa, x1 = 0.1494 | 1.698
308.15 K, 101.33 kPa, x1 = 0.2108 | 1.588
308.15 K, 101.33 kPa, x1 = 0.2648 | 1.485
308.15 K, 101.33 kPa, x1 = 0.3259 | 1.377
308.15 K, 101.33 kPa, x1 = 0.3973 | 1.255
308.15 K, 101.33 kPa, x1 = 0.4697 | 1.145
308.15 K, 101.33 kPa, x1 = 0.5484 | 1.042
308.15 K, 101.33 kPa, x1 = 0.6286 | 0.952
308.15 K, 101.33 kPa, x1 = 0.7575 | 0.841
308.15 K, 101.33 kPa, x1 = 0.8182 | 0.801
308.15 K, 101.33 kPa, x1 = 0.8572 | 0.776
308.15 K, 101.33 kPa, x1 = 0.8972 | 0.753
308.15 K, 101.33 kPa, x1 = 0.923 | 0.739
313.15 K, 101.33 kPa, x1 = 0.0951 | 1.68
313.15 K, 101.33 kPa, x1 = 0.1888 | 1.532
313.15 K, 101.33 kPa, x1 = 0.2886 | 1.38
313.15 K, 101.33 kPa, x1 = 0.3967 | 1.225
313.15 K, 101.33 kPa, x1 = 0.4924 | 1.106
313.15 K, 101.33 kPa, x1 = 0.5903 | 0.9976
313.15 K, 101.33 kPa, x1 = 0.6884 | 0.9063
313.15 K, 101.33 kPa, x1 = 0.7951 | 0.8105
313.15 K, 101.33 kPa, x1 = 0.8941 | 0.7369
318.15 K, 101.33 kPa, x1 = 0.0635 | 1.441
318.15 K, 101.33 kPa, x1 = 0.1073 | 1.395
318.15 K, 101.33 kPa, x1 = 0.1494 | 1.344
318.15 K, 101.33 kPa, x1 = 0.2108 | 1.263
318.15 K, 101.33 kPa, x1 = 0.2648 | 1.188
318.15 K, 101.33 kPa, x1 = 0.3259 | 1.108
318.15 K, 101.33 kPa, x1 = 0.3973 | 1.018
318.15 K, 101.33 kPa, x1 = 0.4697 | 0.938
318.15 K, 101.33 kPa, x1 = 0.5484 | 0.864
318.15 K, 101.33 kPa, x1 = 0.6286 | 0.798
318.15 K, 101.33 kPa, x1 = 0.7575 | 0.717
318.15 K, 101.33 kPa, x1 = 0.8182 | 0.687
318.15 K, 101.33 kPa, x1 = 0.8572 | 0.669
318.15 K, 101.33 kPa, x1 = 0.8972 | 0.65
318.15 K, 101.33 kPa, x1 = 0.923 | 0.642

COCCO + CCOC(=O)OCC
298.15 K, 101.33 kPa
Details | viscosity [mPa·s]
x1 = 0.0272 | 0.752
x1 = 0.0413 | 0.754
x1 = 0.0549 | 0.755
x1 = 0.0747 | 0.755
x1 = 0.0907 | 0.759
x1 = 0.1297 | 0.765
x1 = 0.1593 | 0.772
x1 = 0.224 | 0.791
x1 = 0.2925 | 0.814
x1 = 0.3392 | 0.835
x1 = 0.4073 | 0.866
x1 = 0.4273 | 0.877
x1 = 0.456 | 0.892
x1 = 0.4715 | 0.902
x1 = 0.5283 | 0.939
x1 = 0.5966 | 0.99
x1 = 0.6278 | 1.015
x1 = 0.6808 | 1.062
x1 = 0.7227 | 1.106
x1 = 0.7552 | 1.142
x1 = 0.8011 | 1.197
x1 = 0.8428 | 1.253
x1 = 0.8647 | 1.285
x1 = 0.8826 | 1.313
x1 = 0.9127 | 1.359
x1 = 0.9464 | 1.418
x1 = 0.9674 | 1.455
x2 = 0.0047 | 1.512
x2 = 0.0149 | 1.491
